According to the NIST ThermoML archive (doi:10.1016/j.fluid.2017.06.022):
Several values for one entry are separate records, joined by “and”; a condition that tells them apart may be missing. Equal entries are not always repeated.

Assay: xn = mol fraction of the nth substance listed
Details: Liquid, Bellows volumetry

C=C [ethene] + Cc1ccccc1
Details	mass density
325.3 K, 3200 kPa, x1 = 0.3067	729.1 kg/m3
325.3 K, 3400 kPa, x1 = 0.3067	730.3 kg/m3
325.3 K, 4100 kPa, x1 = 0.3067	731.4 kg/m3 and 730.8 kg/m3
325.3 K, 5500 kPa, x1 = 0.3067	733.1 kg/m3
325.3 K, 6900 kPa, x1 = 0.3067	734.9 kg/m3
325.3 K, 8500 kPa, x1 = 0.3067	737.2 kg/m3
325.3 K, 10200 kPa, x1 = 0.3067	738.9 kg/m3
325.3 K, 11600 kPa, x1 = 0.3067	740.7 kg/m3
325.3 K, 13400 kPa, x1 = 0.3067	743.1 kg/m3
326.2 K, 1270 kPa, x1 = 0.1194	779.8 kg/m3
326.2 K, 1340 kPa, x1 = 0.1194	781 kg/m3
326.2 K, 2020 kPa, x1 = 0.1194	781.6 kg/m3
326.2 K, 2570 kPa, x1 = 0.1194	782.2 kg/m3
326.2 K, 3390 kPa, x1 = 0.1194	783.5 kg/m3
326.2 K, 4760 kPa, x1 = 0.1194	784.7 kg/m3
326.2 K, 5790 kPa, x1 = 0.1194	785.4 kg/m3
326.2 K, 7090 kPa, x1 = 0.1194	787.2 kg/m3
326.2 K, 10310 kPa, x1 = 0.1194	790.4 kg/m3
326.2 K, 13590 kPa, x1 = 0.1194	793.6 kg/m3
348.7 K, 1490 kPa, x1 = 0.1194	759.4 kg/m3
348.7 K, 1560 kPa, x1 = 0.1194	759.4 kg/m3
348.7 K, 1970 kPa, x1 = 0.1194	760 kg/m3
348.7 K, 2380 kPa, x1 = 0.1194	760.5 kg/m3
348.7 K, 2860 kPa, x1 = 0.1194	761.7 kg/m3
348.7 K, 3400 kPa, x1 = 0.1194	762.3 kg/m3
348.7 K, 4090 kPa, x1 = 0.1194	763.5 kg/m3
348.7 K, 5150 kPa, x1 = 0.1194	764.7 kg/m3
348.7 K, 6420 kPa, x1 = 0.1194	765.8 kg/m3
348.7 K, 10040 kPa, x1 = 0.1194	770 kg/m3
348.7 K, 13810 kPa, x1 = 0.1194	774.9 kg/m3
348.7 K, 16900 kPa, x1 = 0.1194	777.9 kg/m3
348.7 K, 21130 kPa, x1 = 0.1194	782.2 kg/m3
348.7 K, 23670 kPa, x1 = 0.1194	785.4 kg/m3
348.7 K, 27850 kPa, x1 = 0.1194	789.1 kg/m3
348.7 K, 30800 kPa, x1 = 0.1194	792.3 kg/m3
348.7 K, 32790 kPa, x1 = 0.1194	793.6 kg/m3
351.6 K, 4100 kPa, x1 = 0.3067	706.4 kg/m3
351.6 K, 4800 kPa, x1 = 0.3067	707.5 kg/m3
351.6 K, 5500 kPa, x1 = 0.3067	708.6 kg/m3
351.6 K, 5600 kPa, x1 = 0.3067	708.6 kg/m3
351.6 K, 6200 kPa, x1 = 0.3067	709.7 kg/m3
351.6 K, 6900 kPa, x1 = 0.3067	710.7 kg/m3
351.6 K, 8600 kPa, x1 = 0.3067	713.5 kg/m3
351.6 K, 10400 kPa, x1 = 0.3067	716.2 kg/m3
351.6 K, 13700 kPa, x1 = 0.3067	721.2 kg/m3
351.6 K, 17000 kPa, x1 = 0.3067	725.7 kg/m3
351.6 K, 20300 kPa, x1 = 0.3067	730.3 kg/m3
351.6 K, 20700 kPa, x1 = 0.3067	730.8 kg/m3
351.6 K, 27400 kPa, x1 = 0.3067	738.9 kg/m3
351.6 K, 30700 kPa, x1 = 0.3067	742.5 kg/m3
373.8 K, 4800 kPa, x1 = 0.3067	677.2 kg/m3
373.8 K, 4900 kPa, x1 = 0.3067	678.1 kg/m3
373.8 K, 5500 kPa, x1 = 0.3067	679.6 kg/m3
373.8 K, 6200 kPa, x1 = 0.3067	680.6 kg/m3
373.8 K, 6900 kPa, x1 = 0.3067	682.1 kg/m3
373.8 K, 8600 kPa, x1 = 0.3067	685.1 kg/m3
373.8 K, 10300 kPa, x1 = 0.3067	688.2 kg/m3
373.8 K, 16700 kPa, x1 = 0.3067	698.5 kg/m3
373.8 K, 17400 kPa, x1 = 0.3067	699.5 kg/m3
373.8 K, 24000 kPa, x1 = 0.3067	709.1 kg/m3
373.8 K, 30800 kPa, x1 = 0.3067	718.4 kg/m3
373.8 K, 36900 kPa, x1 = 0.3067	725.7 kg/m3
373.8 K, 37700 kPa, x1 = 0.3067	726.8 kg/m3
373.8 K, 44200 kPa, x1 = 0.3067	734.3 kg/m3
373.8 K, 51200 kPa, x1 = 0.3067	741.9 kg/m3
375.1 K, 1860 kPa, x1 = 0.1194	732.3 kg/m3
375.1 K, 2200 kPa, x1 = 0.1194	733.4 kg/m3
375.1 K, 2880 kPa, x1 = 0.1194	734.5 kg/m3
375.1 K, 3430 kPa, x1 = 0.1194	735 kg/m3
375.1 K, 4460 kPa, x1 = 0.1194	736.7 kg/m3
375.1 K, 5830 kPa, x1 = 0.1194	738.3 kg/m3
375.1 K, 6720 kPa, x1 = 0.1194	740 kg/m3
375.1 K, 7330 kPa, x1 = 0.1194	740.6 kg/m3
375.1 K, 10280 kPa, x1 = 0.1194	745 kg/m3
375.1 K, 13770 kPa, x1 = 0.1194	749.6 kg/m3
375.1 K, 16990 kPa, x1 = 0.1194	753.6 kg/m3
375.1 K, 20680 kPa, x1 = 0.1194	758.2 kg/m3
375.1 K, 23900 kPa, x1 = 0.1194	761.7 kg/m3
375.1 K, 27390 kPa, x1 = 0.1194	766.4 kg/m3
375.1 K, 30540 kPa, x1 = 0.1194	769.4 kg/m3
375.1 K, 34240 kPa, x1 = 0.1194	773.7 kg/m3
375.1 K, 37600 kPa, x1 = 0.1194	777.3 kg/m3
375.1 K, 41300 kPa, x1 = 0.1194	781 kg/m3
375.1 K, 44240 kPa, x1 = 0.1194	783.5 kg/m3
375.1 K, 47940 kPa, x1 = 0.1194	787.2 kg/m3
421 K, 6400 kPa, x1 = 0.3067	620.7 kg/m3
421 K, 6900 kPa, x1 = 0.3067	622.8 kg/m3
421 K, 8600 kPa, x1 = 0.3067	628.3 kg/m3
421 K, 10500 kPa, x1 = 0.3067	633.8 kg/m3
421 K, 12400 kPa, x1 = 0.3067	638.2 kg/m3
421 K, 13800 kPa, x1 = 0.3067	643 kg/m3
421 K, 17300 kPa, x1 = 0.3067	652 kg/m3
421 K, 20700 kPa, x1 = 0.3067	659.9 kg/m3
421 K, 24300 kPa, x1 = 0.3067	667 kg/m3
421 K, 30700 kPa, x1 = 0.3067	678.1 kg/m3
